Patent publication US20260013501A1, “HERBICIDAL DERIVATIVES” (SYNGENTA CROP PROTECTION AG, priority 2022, published 2026)

Key:
Type in all cases: in vivo
Zea mays (ZEAMX) [1] = assay: Pre-emergence Test (Table B1), ZEAMX; conditions: evaluated after 13 days
[2] = test system: Echinochloa crus-galli (ECHCG); assay: Pre-emergence Test (Table B1), ECHCG; conditions: evaluated after 13 days
[3] = test system: Ipomoea hederacea (IPOHE); assay: Pre-emergence Test (Table B1), IPOHE; conditions: evaluated after 13 days
[4] = test system: Amaranthus palmeri (AMAPA); assay: Pre-emergence Test (Table B1), AMAPA; conditions: evaluated after 13 days
[5] = test system: Amaranthus retoflexus (AMARE); assay: Pre-emergence Test (Table B1), AMARE; conditions: evaluated after 13 days
[6] = test system: Echinochloa crus-galli (ECHCG); assay: Post-emergence Test (Table B2), ECHCG; parameters: key: 5-point damage scale: 5=81-100%, 4=61-80%, 3=41-60%, 2=21-40%, 1=0-20%; conditions: evaluated after 13 days
Experimental: (§1) Seeds of a variety of test species are sown in standard soil in pots (Ipomoea hederacea (IPOHE), Zea mays (ZEAMX), Echinochloa crus-galli (ECHCG), Amaranthus palmeri (AMAPA), (Amaranthus retoflexus (AMARE), and (Setaria faberi (SETFA)). After 8 days cultivation under controlled conditions in a glasshouse (at 24° C./16° C., day/night; 14 hours light; 65% humidity), the plants are sprayed with an aqueous spray solution derived from the formulation of the technical active ingredient in acetone/water (50:50) solution containing 0.5% Tween 20 (polyoxyethelyene sorbitan monolaurate, CAS RN 9005-64-5). Rate of application is shown in g/ha in the tables below. The test plants are then grown in a glasshouse under controlled conditions in a glasshouse (at 24° C./16° C., day/night; 14 hours light; 65% humidity) and watered twice daily. After 13 days the test is evaluated for the percentage damage caused to the plant. The biological activities are shown in the following table on a five-point scale (5=81-100%; 4=61-80%; 3=41-60%; 2=21-40%; 1=0-20%; -=not tested).

Zea mays (ZEAMX) [7] = assay: Post-emergence Test (Table B2), ZEAMX; parameters: key: 5-point damage scale: 5=81-100%, 4=61-80%, 3=41-60%, 2=21-40%, 1=0-20%; conditions: evaluated after 13 days
Experimental: as §1

[8] = test system: Amaranthus palmeri (AMAPA); assay: Post-emergence Test (Table B2), AMAPA; parameters: key: five-point scale: 5=81-100%, 4=61-80%, 3=41-60%, 2=21-40%, 1=0-20% damage; conditions: rate 250 g/Ha, evaluated after 13 days
Experimental: as §1

CCn1c(Cc2ccc(C(F)(F)F)cc2)cc(=O)c(C(=O)O)c1-c1ccc(Cl)c(Cl)c1 [Compound 6, 2-(3,4-dichlorophenyl)-1-ethyl-4-oxo-6-[[4-(trifluoromethyl)phenyl]methyl]pyridine-3-carboxylic acid]
0: Pre-emergence Test, percentage damage caused to the plant (five-point scale), ZEAMX (Zea mays (ZEAMX) [1]; Rate 1000 g/Ha) | Pre-emergence Test, percentage damage caused to the plant (five-point scale), ECHCG ([2]; Rate 1000 g/Ha) | Pre-emergence Test, percentage damage caused to the plant (five-point scale), IPOHE ([3]; Rate 1000 g/Ha)

CCn1c(Cc2nccc(OC)n2)cc(=O)c(C(=O)O)c1-c1ccc(Cl)c(Cl)c1 [Compound 20, 2-(3,4-dichlorophenyl)-1-ethyl-6-[(4-methoxypyrimidin-2-yl)methyl]-4-oxo-pyridine-3-carboxylic acid]
0: Pre-emergence Test, percentage damage caused to the plant (five-point scale), AMAPA ([4]; Rate 250 g/Ha) | Pre-emergence Test, percentage damage caused to the plant (five-point scale), ZEAMX (Zea mays (ZEAMX) [1]; Rate 250 g/Ha) | Pre-emergence Test, percentage damage caused to the plant (five-point scale), ECHCG ([2]; Rate 250 g/Ha) | Pre-emergence Test, percentage damage caused to the plant (five-point scale), AMARE ([5]; Rate 250 g/Ha)

CCn1c(Cc2ncccn2)cc(=O)c(C(=O)O)c1-c1ccc(Cl)c(Cl)c1 [Compound 22, 2-(3,4-dichlorophenyl)-1-ethyl-4-oxo-6-(pyrimidin-2-ylmethyl)pyridine-3-carboxylic acid]
0: Pre-emergence Test, percentage damage caused to the plant (five-point scale), AMAPA ([4]; Rate 250 g/Ha) | Pre-emergence Test, percentage damage caused to the plant (five-point scale), ZEAMX (Zea mays (ZEAMX) [1]; Rate 250 g/Ha) | Pre-emergence Test, percentage damage caused to the plant (five-point scale), ECHCG ([2]; Rate 250 g/Ha) | Pre-emergence Test, percentage damage caused to the plant (five-point scale), AMARE ([5]; Rate 250 g/Ha)

CCn1c(Cc2ccc(OC(F)(F)F)cc2)cc(=O)c(C(=O)O)c1-c1ccc(Cl)c(Cl)c1 [Compound 26, 2-(3,4-dichlorophenyl)-1-ethyl-4-oxo-6-[[4-(trifluoromethoxy)phe-nyl]methyl]pyridine-3-carboxylic acid]
0: percentage damage caused to the plant, ECHCG ([6]; rate 1000 g/Ha) | percentage damage caused to the plant, ZEAMX (Zea mays (ZEAMX) [7]; rate 1000 g/Ha)

CCn1c(Cc2ccc(OC)nc2)cc(=O)c(C(=O)O)c1-c1ccc(Cl)c(Cl)c1 [Compound 40, 2-(3,4-dichlorophenyl)-1-ethyl-6-[(6-methoxy-3-pyridyl)methyl]-4-oxo-pyridine-3-carboxylic acid]
0: Pre-emergence Test, percentage damage caused to the plant (five-point scale), ZEAMX (Zea mays (ZEAMX) [1]; Rate 250 g/Ha) | Pre-emergence Test, percentage damage caused to the plant (five-point scale), ECHCG ([2]; Rate 250 g/Ha) | percentage damage caused to the plant, ECHCG ([6]; rate 250 g/Ha) | Pre-emergence Test, percentage damage caused to the plant (five-point scale), IPOHE ([3]; Rate 250 g/Ha)

CCn1c(Cc2cncc(Cl)n2)cc(=O)c(C(=O)O)c1-c1ccc(Cl)c(Cl)c1 [Compound 43, 6-[(6-chloropyrazin-2-yl)methyl]-2-(3,4-dichlorophenyl)-1-ethyl-4-oxo-pyridine-3-carboxylic acid]
0: Pre-emergence Test, percentage damage caused to the plant (five-point scale), AMAPA ([4]; Rate 250 g/Ha) | percentage damage caused to the plant, AMAPA [8] | Pre-emergence Test, percentage damage caused to the plant (five-point scale), ZEAMX (Zea mays (ZEAMX) [1]; Rate 250 g/Ha)

CCn1c(Cc2cc(=O)[nH]cn2)cc(=O)c(C(=O)O)c1-c1ccc(Cl)c(Cl)c1 [Compound 45, 2-(3,4-dichlorophenyl)-1-ethyl-4-oxo-6-[(6-oxo-1H-pyrimidin-4-yl)methyl]pyridine-3-carboxylic acid]
0: Pre-emergence Test, percentage damage caused to the plant (five-point scale), AMAPA ([4]; Rate 250 g/Ha) | Pre-emergence Test, percentage damage caused to the plant (five-point scale), ZEAMX (Zea mays (ZEAMX) [1]; Rate 250 g/Ha) | Pre-emergence Test, percentage damage caused to the plant (five-point scale), ECHCG ([2]; Rate 250 g/Ha) | percentage damage caused to the plant, ECHCG ([6]; rate 250 g/Ha) | Pre-emergence Test, percentage damage caused to the plant (five-point scale), AMARE ([5]; Rate 250 g/Ha)

CCn1c(Cc2ccc(C(=O)OC)cn2)cc(=O)c(C(=O)O)c1-c1ccc(Cl)c(Cl)c1 [Compound 46, 2-(3,4-dichlorophenyl)-1-ethyl-6-[(5-methoxycarbonyl-2-pyridyl)methyl]-4-oxo-pyridine-3-carboxylic acid]
0: Pre-emergence Test, percentage damage caused to the plant (five-point scale), ZEAMX (Zea mays (ZEAMX) [1]; Rate 250 g/Ha) | percentage damage caused to the plant, ECHCG ([6]; rate 250 g/Ha)

CCn1c(Cc2ccc(S(C)(=O)=O)cc2)cc(=O)c(C(=O)O)c1-c1ccc(Cl)c(Cl)c1 [Compound 72, 2-(3,4-dichlorophenyl)-1-ethyl-6-[(4-methylsulfonylphenyl)methyl]-4-oxo-pyridine-3-carboxylic acid]
0: Pre-emergence Test, percentage damage caused to the plant (five-point scale), ECHCG ([2]; Rate 250 g/Ha) | percentage damage caused to the plant, ECHCG ([6]; rate 250 g/Ha) | Pre-emergence Test, percentage damage caused to the plant (five-point scale), IPOHE ([3]; Rate 250 g/Ha) | percentage damage caused to the plant, ZEAMX (Zea mays (ZEAMX) [7]; rate 250 g/Ha)

CCn1c(Cc2cc(OC)ccc2F)cc(=O)c(C(=O)O)c1-c1ccc(Cl)c(Cl)c1 [Compound 90, 2-(3,4-dichlorophenyl)-1-ethyl-6-[(2-fluoro-5-methoxy-phenyl)methyl]-4-oxo-pyridine-3-carboxylic acid]
0: Pre-emergence Test, percentage damage caused to the plant (five-point scale), AMAPA ([4]; Rate 1000 g/Ha) | Pre-emergence Test, percentage damage caused to the plant (five-point scale), ZEAMX (Zea mays (ZEAMX) [1]; Rate 1000 g/Ha) | percentage damage caused to the plant, ECHCG ([6]; rate 1000 g/Ha) | Pre-emergence Test, percentage damage caused to the plant (five-point scale), AMARE ([5]; Rate 1000 g/Ha) | percentage damage caused to the plant, ZEAMX (Zea mays (ZEAMX) [7]; rate 1000 g/Ha)

CCn1c(Cc2ncc(SC)cn2)cc(=O)c(C(=O)O)c1-c1ccc(Cl)c(Cl)c1 [Compound 99, 2-(3,4-dichlorophenyl)-1-ethyl-6-[(5-methylsulfanylpyrimidin-2-yl)methyl]-4-oxo-pyridine-3-carboxylic acid]
0: Pre-emergence Test, percentage damage caused to the plant (five-point scale), ZEAMX (Zea mays (ZEAMX) [1]; Rate 250 g/Ha) | Pre-emergence Test, percentage damage caused to the plant (five-point scale), ECHCG ([2]; Rate 250 g/Ha) | Pre-emergence Test, percentage damage caused to the plant (five-point scale), IPOHE ([3]; Rate 250 g/Ha)

CCn1c(Cc2ccc(C#N)c(F)n2)cc(=O)c(C(=O)O)c1-c1ccc(Cl)c(Cl)c1 [Compound 112, 6-[(5-cyano-6-fluoro-2-pyridyl)methyl]-2-(3,4-dichlorophenyl)-1-ethyl-4-oxo-pyridine-3-carboxylic acid]
0: Pre-emergence Test, percentage damage caused to the plant (five-point scale), AMAPA ([4]; Rate 62.5 g/Ha) | Pre-emergence Test, percentage damage caused to the plant (five-point scale), ZEAMX (Zea mays (ZEAMX) [1]; Rate 62.5 g/Ha) | Pre-emergence Test, percentage damage caused to the plant (five-point scale), ECHCG ([2]; Rate 62.5 g/Ha) | Pre-emergence Test, percentage damage caused to the plant (five-point scale), IPOHE ([3]; Rate 62.5 g/Ha) | Pre-emergence Test, percentage damage caused to the plant (five-point scale), AMARE ([5]; Rate 62.5 g/Ha)

CCn1c(Cc2cccc(C(C)=O)n2)cc(=O)c(C(=O)O)c1-c1ccc(Cl)c(Cl)c1 [Compound 116, 6-[(6-acetyl-2-pyridyl)methyl]-2-(3,4-dichlorophenyl)-1-ethyl-4-oxo-pyridine-3-carboxylic acid]
0: percentage damage caused to the plant, AMAPA [8] | Pre-emergence Test, percentage damage caused to the plant (five-point scale), IPOHE ([3]; Rate 250 g/Ha)

CCn1c(Cc2nc(C(=O)OC)co2)cc(=O)c(C(=O)O)c1-c1ccc(Cl)c(Cl)c1 [Compound 148, 2-(3,4-dichlorophenyl)-1-ethyl-6-[(4-methoxycarbonyloxazol-2-yl)methyl]-4-oxo-pyridine-3-carboxylic acid]
0: percentage damage caused to the plant, AMAPA [8] | Pre-emergence Test, percentage damage caused to the plant (five-point scale), ZEAMX (Zea mays (ZEAMX) [1]; Rate 250 g/Ha) | Pre-emergence Test, percentage damage caused to the plant (five-point scale), ECHCG ([2]; Rate 250 g/Ha) | Pre-emergence Test, percentage damage caused to the plant (five-point scale), IPOHE ([3]; Rate 250 g/Ha) | percentage damage caused to the plant, ZEAMX (Zea mays (ZEAMX) [7]; rate 250 g/Ha)
